Assay results from patent publication US10081662B2, “Modified relaxin B chain peptides” (The Florey Institute of Neuroscience and Mental Health, priority 2014, dated 2018).
Peptide text beside a SMILES is read from it.

How the values were obtained:
[1] = test system: ERK1/2; experiment: ERK1/2 phosphorylation (AlphaScreen SureFire) in rat renal myofibroblasts endogenously expressing RXFP1; format: cell-based
Description: The inventors then tested the single chain B7-33 C11.23S relaxin-2 peptide for its ability to signal via different pathways, cAMP (see Example 2) and pERK.1/2 on HEK-293T (cells stably expressing RXFP1) and myofibroblast cells (cells endogenously expressing RXFP1) The cAMP assay was conducted as described in Example 2. Phosphorylation of ERK1/2 was determined using AlphaScreen SureFire® assay which is a proprietary, non-radioactive and non-Western proximity assay that relies on singlet oxygen energy transfer (PerkinElmer Inc.). Rat renal fibroblasts (that endogenously express RXFP1 receptor) were seeded into a 96-well plate at a density of 40,000 cells per well and incubated overnight in complete media to allow cell adhesion. Cells were then serum-starved for 4-6 hours followed by native H2 relaxin (100 nM) or B7-33 C11.23S peptide (100 nM) treatment for periods of up to 20 minutes and ERK1/2 activation was quantified using the phospho-ERK1/2 Surefire AlphaScreen kit.

[2] = target: T1, RXFP2 (Homo sapiens, UniProt Q8WXD0); experiment: cAMP reporter gene assay in HEK-293T cells transfected with RXFP2; format: cell-based; settings: RXFP1- vs RXFP2-expressing HEK-293T cells; FIG. 3
T1 construct: expressed in transfected cells; host or cells: HEK-293T
T1 sequence (Q8WXD0 whole entry): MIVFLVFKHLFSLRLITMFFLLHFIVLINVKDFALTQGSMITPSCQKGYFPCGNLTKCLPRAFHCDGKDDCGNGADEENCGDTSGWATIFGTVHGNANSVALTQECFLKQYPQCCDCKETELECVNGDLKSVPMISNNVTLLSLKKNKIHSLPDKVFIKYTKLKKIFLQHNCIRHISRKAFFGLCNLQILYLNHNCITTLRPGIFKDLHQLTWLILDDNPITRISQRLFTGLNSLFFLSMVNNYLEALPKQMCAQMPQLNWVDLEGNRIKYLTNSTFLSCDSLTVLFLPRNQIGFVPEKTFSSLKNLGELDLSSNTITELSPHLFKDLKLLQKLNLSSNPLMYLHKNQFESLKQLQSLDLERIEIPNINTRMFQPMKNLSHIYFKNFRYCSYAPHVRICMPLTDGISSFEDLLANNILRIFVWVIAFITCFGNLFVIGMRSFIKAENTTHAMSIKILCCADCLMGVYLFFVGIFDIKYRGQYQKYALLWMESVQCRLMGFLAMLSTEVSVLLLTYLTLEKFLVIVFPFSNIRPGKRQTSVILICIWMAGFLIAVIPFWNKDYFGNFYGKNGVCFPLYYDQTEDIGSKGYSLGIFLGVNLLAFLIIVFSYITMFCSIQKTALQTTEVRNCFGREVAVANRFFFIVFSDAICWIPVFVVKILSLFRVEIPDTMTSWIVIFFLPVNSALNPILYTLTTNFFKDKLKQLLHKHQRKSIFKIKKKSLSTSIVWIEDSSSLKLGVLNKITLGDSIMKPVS
Description: The ability of the relaxin-2 B chain peptide derivatives generated in Example 1 to stimulate cAMP response was also evaluated, using a cAMP reporter gene assay as described previously (Scott et al., 2006, J Biol Chem. 281, 34942-34954). HEK-293T cells co-transfected with either RXFP1 or RXFP2, or 7BP cells, and a pCRE β-galactosidase reporter plasmid were plated in 96-well plates. After 24 hours, the co-transfected cells were incubated with increasing concentrations of peptides in parallel to 10 nM of H2 relaxin or INSL3 for RXFP1- or RXFP2-transfected cells respectively. The amount of cAMP-driven β-galactosidase expression in each well was assessed with a colorimetric assay measuring absorbance at 570 nm on a microplate spectrophotometer. Ligand-induced cAMP stimulation was expressed as a percentage of maximal response of H2 relaxin or INSL3 for RXFP1 and RXFP2 cells respectively. Each data point was measured in triplicate and each experiment conducted independently at least three separate times. Statistical differences in pEC50 values were analyzed using one-way ANOVA coupled to Newman Keul's multiple comparison test for multiple group comparisons in GraphPad Prism 6.

## CC[C@H](C)[C@H](NC(=O)[C@H](C)NC(=O)[C@@H](NC(=O)[C@H](CCC(N)=O)NC(=O)[C@H](C)NC(=O)[C@H](CCCNC(=N)N)NC(=O)[C@@H](NC(=O)[C@H](CC(C)C)NC(=O)[C@H](CCC(=O)O)NC(=O)[C@H](CCCNC(=N)N)NC(=O)CNC(=O)[C@H](CO)NC(=O)[C@H](CC(C)C)NC(=O)[C@H](CCCCN)NC(=O)[C@@H](NC(=O)[C@@H](N)C(C)C)[C@@H](C)CC)C(C)C)[C@@H](C)CC)C(=O)N[C@@H](CO)C(=O)NCC(=O)N[C@@H](CCSC)C(=O)N[C@@H](CO)C(=O)N[C@H](C(=O)N[C@@H](Cc1c[nH]c2ccccc12)C(=O)N[C@@H](CO)C(=O)N[C@@H](CCCCN)C(=O)N[C@@H](CCCNC(=N)N)C(=O)N[C@@H](CO)C(=O)N[C@@H](CC(C)C)C(N)=O)[C@@H](C)O [B7-33 C11.23S] (H-VIKLSGRELVRAQIAISGMSTWSKRSL-NH2)
[1]; rat renal myofibroblasts natively expressing RXFP1, FIG. 4
  pERK potency in rat renal myofibroblast (in words): very high pERK potency
[1]; rat renal myofibroblasts, 100 nM peptide
  Time of peak ERK1/2 activation after peptide treatment: 5 min
[1]; rat renal myofibroblasts, 100 nM peptide, up to 20 minutes, FIG. 4
  ERK1/2 activation, level of efficacy: slightly higher level of efficacy as H2 relaxin
[2]
  Selectivity of cAMP stimulation, RXFP1 over RXFP2: selective at RXFP1 over RXFP2
